Experimental data as given in US10933039B2, “Coolant mixtures” (Symrise AG, priority 2016, dated 2021).

Experiment: Sensory evaluation of coolant mixtures by a panel of 5 trained testers (cooling effect and flavor profile) in a standard chewy candy preparation
Assay type: in vivo
Conditions: panel score (5)=very true to (0)=largely not true; mean values of 5 trained testers; unsweetened, non-aromatized standard chewy candy preparation
Method: The cooling effect and flavor profile of various coolant mixtures were evaluated by a panel consisting of 5 trained testers. For this purpose, the mixtures were incorporated into an unsweetened and non-aromatized standard chewy candy preparation. The evaluation was reported according to the notation (5)=very true to (0)=largely not true. Data are mean values.

Row | Compound | Cooling effect is strong | Cooling effect occurs rapidly
1 | CC(C)C=O [C1, Isobutyraldehyde] | 3.2 | 2.1
2 | CC(C)CC=O [C2, Isovaleraldehyde] | 3.1 | 2.0
3 | CC(C)C(=O)O [C3, Isobutyric acid] | 3.0 | 2.2
4 | CC(C)CC(=O)O [C4, Isovaleric acid] | 3.1 | 2.5
